Several values for one entry are separate records, joined by “and”; a condition that tells them apart may be missing. Equal values may be shown once.
Target: PcrV (Pseudomonas aeruginosa, UniProt G3XD49)
Assay: SPR dose-response binding to immobilized PcrV (equilibrium analysis)
Protocol: The SPR screening was performed using the ProteOn^TM XPR36 Protein Interaction Array System (Bio-Rad Laboratories Inc., Hercules, CA, USA) with ProteOn GLH sensor chip (Bio-Rad Laboratories Inc., Hercules, CA, USA), and the results were analyzed with the ProteOn Manager software^TM (Bio-Rad Laboratories Inc., Hercules, CA, USA), Excel 2016 (Microsoft Office), and GraphPad Prism 7.04. All SPR experiments were performed at 25 °C. The multichannel module of the ProteOn system was in the vertical position during protein immobilization. The proteins were attached to the surface of a GLH sensor chip via amine coupling chemistry. A buffer scouting was performed to elucidate the optimal binding conditions of PcrV to the GLH sensor chip. First, channels 1–4 on the chip surface were activated using a 1:1 mixture of 40 mM 1-ethyl-3-(3-dimethylaminopropyl)carbodiimide hydrochloride (EDAC) (Bio-Rad Laboratories Inc., Hercules, CA, USA) and 10 mM N-hydroxysulfosuccinimide (sulfo-NHS, Bio-Rad Laboratories Inc., Hercules, CA, USA) for 300 s at 30 µL/min. Next, the proteins PcrV (33,398.6 Da, 6.37 mg/mL) was diluted in 10 mM NaOAc (pH 4, 4.5, and 5) to 0.05 mg/mL. PcrV was immobilized in channel 1–3 for 540 s at 30 µL/min. Channel 4 was flushed with 10 mM NaOAc (pH 5) for 540 s at 30 µL/min. As deactivating agent, a 1:1 mixture of 1 M ethanolamine and milli-Q filtered water was used. The deactivating solution was injected over all four channels for 300 s at 30 µL/min. Phosphate buffered saline with Tween (PBST; 10 mM phosphate buffer pH 7.4, 140 mM NaCl, 2.7 mM KCl, and 0.05% Tween 20) was used as the running buffer. The final amount of immobilized protein was measured in resonance units (RU) relative to the signal of the baseline prior activation. […] Immobilization of PcrV diluted in sodium acetate of pH 4.5 in one channel and of pH 5 in one channel were used in the beginning of the screening procedure (for plate 1–26). Since no difference was found between the two pH values, the PcrV protein was diluted in sodium acetate at pH 5 only (in two channels) from plate 27 and the rest of the screen. The immobilization procedure for the screening was performed as described above with the addition that the control protein carbonic anhydrase isoenzyme II from bovine erythrocytes (CAII, Sigma-Aldrich, article number 2522) was immobilized in one channel that was activated and deactivated as described above. CAII (1 mg/mL in PBS) was deactivated when diluted in 10 mM sodium acetate (pH 4) to 0.05 mg/mL. Immobilization level of the deactivated CAII was 18,000 RU. Deactivated CAII was used as a control protein according to the recommendations by the ProteOn manufacturer (Bio-Rad Laboratories Inc., Hercules, CA, USA). As running buffer, we employed PBS (pH 7.4, 0.05% Tween 20).
First, the PcrV protein was immobilized in two channels as described above while keeping a blank channel which was activated and deactivated as described above. The multichannel module of the ProteOn system was in horizontal position during the small molecule interaction studies. They were serially diluted to (400,) 200, 100, 50, 25, 12.5, 6.25, and (3.125); or 100, 50, 25, and 12.5 µM; or 100, 66.7, 44.4, 29.6, 19.7, and 13.2 µM in PBST (0.05% Tween 20) with a total concentration of 5% DMSO in 96-well plates. The running buffer was PBST (0.05% Tween 20) containing 5% DMSO. The analytes were injected at a flowrate of 100 µL/min, contact time was 60 s, and dissociation time was 60–120 s. Solvent correction was performed continuously during the experiments to account for bulk response of DMSO. The data was then baseline-aligned, processed by channel referencing with the blank channel, and solvent-corrected. The equilibrium dissociation constant (KD) values were determined from equilibrium analysis in the ProteOn Manager software^TM. Solubility problems frequently hampered KD determination since the small molecules could not always be dissolved in concentrations high enough to reach a plateau. […]

[1] = KD ± standard error of KD (Table S1), single experiment, standard error from ProteOn Manager software
[2] = SPR KD, equilibrium analysis, mean ± SD of three or more independent experiments, individual values where n < 3, 25 °C, PBST 5% DMSO

PcrV, sequence (G3XD49 entry or part of it): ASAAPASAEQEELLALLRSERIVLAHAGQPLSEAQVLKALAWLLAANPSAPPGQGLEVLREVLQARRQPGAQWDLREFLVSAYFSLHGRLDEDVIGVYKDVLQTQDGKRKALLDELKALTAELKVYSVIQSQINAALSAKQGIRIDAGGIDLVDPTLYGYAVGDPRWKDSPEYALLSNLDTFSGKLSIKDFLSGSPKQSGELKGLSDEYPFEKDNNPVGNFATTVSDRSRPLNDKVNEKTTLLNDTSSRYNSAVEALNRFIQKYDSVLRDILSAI

SMILES | Kd [1] | Kd [2] | Rmax (Table S1) (single experiment) | Kd (KD (equilibrium analysis, Figure 3B), one representative experiment, binding levels at 45-55 s) | Rmax (equilibrium analysis, Figure 3B) (one representative experiment)
Cc1c(Br)ccc(OC[C@@H]2C[C@H]2C(=O)O)c1C (relative stereo) [Compound 32] | 61.1 ± 16.9 µM | ~60 µM and 61 to 63 µM and 61 µM | 81.8 |  | 
Cc1c(Br)ccc(OC[C@@H]2C[C@@H]2C(=O)O)c1C (relative stereo) [Compound 33] | 59.5 ± 11.1 µM | ~60 µM and 61 to 63 µM and 63 µM | 76.8 |  | 
Cc1c(Br)ccc(OCCCC(=O)O)c1C [Compound H1] |  | < 150 µM and 106 µM |  | 98.3 µM | 71.3 RU
